Reference: patent US20170119907A1, “Targeted Therapeutics” (MEDIVATION TECHNOLOGIES, INC., priority 2014, published 2017)

Legend:
[1] = tested on: MSCs from sheep bone marrow; assay: Differentiation of sheep MSCs to chondrocytes in pellet culture (modified Bern Score); format: cell-based; settings: for Cell Distance / Matrix Stain / Morphology: score 0-3; for Final Score (Bern Score): score 0-9
Protocol: Compounds of the invention were assessed in an in vitro pellet cell culture model of chondrogenesis.
Conditions tested were: • a. (1) Priming: exposure of cells to TGFβ3 prior to incubation with Compound 4 or Compound 20; • b. (2) Dose: Concentration of Compound 4 or Compound 20 that cells were incubated with prior to pellet culture; and • c. (3) Media: presence or absence of TGFβ3 in the media used for the 3-week pellet culture duration.
A population of cells enriched for MSCs from sheep bone marrow was harvested, cultured and expanded. Cells from passage 3 (P3) were incubated with either chondrogenic differentiation medium for the Priming “+” groups or chondrogenic differentiation medium without TGFβ3 for the Priming “−” groups. Following centrifugation at 400×g for 5 min and gentle removal of the supernatant, cells were re-suspended with the appropriate number of cells in Compound 4 or Compound 20 in 1×PBS, pH 7, at following concentrations: 10 μM, 3.16 μM, 1 μM, and 0.316 μM of Compound 4; or 10 μM and 1 μM of Compound 20. For control conditions, cells were incubated in 1×PBS at pH 7. All treatment groups were then incubated for 30 min in the dark with nutation. Following centrifugation at 400×g for 5 min and gentle removal of the supernatant, cells were re-suspended and washed with 1×PBS at pH 7 and spun at 400×g for 5 min to remove supernatant. Depending on the condition, cells were re-suspended cells in chondrogenic differentiation medium OR in chondrogenic medium without TGFb3. Cells were counted, and approximately 2.5×10^5 cells were plated into polypropylene 96-well plates incubated under standard pellet culture conditions for three weeks. Medium was changed 3× weekly.
Pellets were fixed in 10% formalin for at least 8 hours and then infiltrated with paraffin wax. Sections were then cut at approximately 5 microns and stained using safranin-orange, Fast Green, Haematoxylin-Eosin, and 1% Toluidine Blue.
Histological grading was performed according to a modified Bern Score to assess chondrogenic morphology of the cells and any matrix deposition by the cells according to the following three criteria:
The subcomponents of the Bern Score are additive. Accordingly, the Bern Score presents a maximum total score of 9 representing the best possible score and minimum score of 0 representing no chondrogenesis.
In this Example, the Bern Score for Control pellets is a proxy for chondrogenic capacity of the cell population using a standard pellet culture protocol. […] Pellets that were formed using the 30 minute incubation protocol with only PBS replacing Compound 4 (0 μM Compound 4) are referred to as “PBS pellets.”

[2] = tested on: rabbit dorsal femoral condyle explants; assay: Binding to and staining of rabbit dorsal femoral condyle explants; settings: photomicrographs, FIGS. 5A-B
[3] = Differentiation Medium +, TGFβ3 Priming +, 1 μM
[4] = Differentiation Medium +, TGFβ3 Priming +, 10 μM
[5] = Differentiation Medium +, TGFβ3 Priming −, 1 μM
[6] = Differentiation Medium +, TGFβ3 Priming −, 10 μM
[7] = Differentiation Medium −, TGFβ3 Priming +, 1 μM
[8] = Differentiation Medium −, TGFβ3 Priming +, 10 μM
[9] = Differentiation Medium +, TGFβ3 Priming +, 0.316 μM
[10] = Differentiation Medium +, TGFβ3 Priming +, 3.16 μM
[11] = Differentiation Medium +, TGFβ3 Priming −, 0.316 μM
[12] = Differentiation Medium +, TGFβ3 Priming −, 3.16 μM
[13] = Differentiation Medium −, TGFβ3 Priming +, 0.316 μM
[14] = Differentiation Medium −, TGFβ3 Priming +, 3.16 μM

Which results are given for Cc1cc2nc3cc(C)c(NCCCCCCNC(=O)c4ccc(-c5ccc(C(=O)NCCCCCCNc6cc7c(cc6C)nc6cc(C)c(N)cc6[n+]7-c6ccccc6)cc5)cc4)cc3[n+](-c3ccccc3)c2cc1N.[Cl-].[Cl-] [Compound 20, (3-amino-7-{[6-({4-[4-({6-[(7-amino-5-chloranuide-2,8-dimethyl-5-phenyl-5λ^6,10-phenazin-5-ylium-3-yl)amino]hexyl}carbamoyl)phenyl]phenyl}formamido)hexyl]amino}-2,8-dimethyl-5-phenyl-5λ^6,10-phenazin-5-ylium-5-e)chloranuide]?
Cell Distance [1, 3]: 3; Matrix Stain [1, 3]: 3; Morphology [1, 3]: 2.5; Final Score (Bern Score) [1, 3]: 8.5; Cell Distance [1, 4]: 2.5; Matrix Stain [1, 4]: 2.5; Morphology [1, 4]: 2.5; Final Score (Bern Score) [1, 4]: 7.5; Cell Distance [1, 5]: 2.5; Matrix Stain [1, 5]: 2.5; Morphology [1, 5]: 2; Final Score (Bern Score) [1, 5]: 7; Cell Distance [1, 6]: 2; Matrix Stain [1, 6]: 2; Morphology [1, 6]: 2; Final Score (Bern Score) [1, 6]: 6; Cell Distance [1, 7]: 0; Matrix Stain [1, 7]: 0; Morphology [1, 7]: 0; Final Score (Bern Score) [1, 7]: 0; Cell Distance [1, 8]: 0; Matrix Stain [1, 8]: 0; Morphology [1, 8]: 0; Final Score (Bern Score) [1, 8]: 0; Chondrogenic capacity (in words) ([1]; either concentration tested (10 μM and 1 μM) and differentiation medium): good chondrogenic capacity; binding to and staining of rabbit dorsal femoral condyle explants [2]: bind to and stain

With Cc1cc2nc3cc(C)c(NCCCCCCCCNc4cc5c(cc4C)nc4cc(C)c(N)cc4[n+]5-c4ccccc4)cc3[n+](-c3ccccc3)c2cc1N.[Cl-].[Cl-] [Compound 4, 7,7′-(octane-1,8-diylbis(azanediyl))bis(3-amino-2,8-dimethyl-5-phenylphenazin-5-ium) chloride] as the molecule, how does the “Chondrogenic capacity (in words)” value ([1]; 3.16 μM and differentiation medium) read?
Its value is “good chondrogenic capacity”.

And the “Cell Distance” value [1, 9]?
The value was 3.

What about the “Matrix Stain” value [1, 9] of the same molecule?
Its value is 3.

What about the Morphology [1, 9] of the same molecule?
Its Morphology is 3.

What about the “Final Score (Bern Score)” value [1, 9] of the same molecule?
Its value is 9.

And the “Cell Distance” value [1, 3]?
Its value is 2.5.

And the “Matrix Stain” value [1, 3]?
Its value is 3.

What about the Morphology [1, 3] of the same molecule?
Its Morphology is 2.

And the “Final Score (Bern Score)” value [1, 3]?
Its value is 7.5.

And the “Cell Distance” value [1, 10]?
The value was 2.

And the “Matrix Stain” value [1, 10]?
Its value is 2.

What about the Morphology [1, 10] of the same molecule?
Its Morphology is 2.

What about the “Final Score (Bern Score)” value [1, 10] of the same molecule?
Its value is 6.

What about the “Cell Distance” value [1, 4] of the same molecule?
The value was 0.

What about the “Matrix Stain” value [1, 4] of the same molecule?
The value was 0.

And the Morphology [1, 4]?
Its Morphology is 0.

What about the “Final Score (Bern Score)” value [1, 4] of the same molecule?
The value was 0.

What about the “Cell Distance” value [1, 11] of the same molecule?
The value was 2.5.

What about the “Matrix Stain” value [1, 11] of the same molecule?
The value was 3.

What about the Morphology [1, 11] of the same molecule?
Its Morphology is 2.5.

And the “Final Score (Bern Score)” value [1, 11]?
Its value is 8.

And the “Cell Distance” value [1, 5]?
Its value is 2.

What about the “Matrix Stain” value [1, 5] of the same molecule?
The value was 2.5.

What about the Morphology [1, 5] of the same molecule?
The Morphology was 2.

What about the “Final Score (Bern Score)” value [1, 5] of the same molecule?
Its value is 6.5.

What about the “Cell Distance” value [1, 12] of the same molecule?
Its value is 2.

And the “Matrix Stain” value [1, 12]?
The value was 2.

And the Morphology [1, 12]?
Its Morphology is 2.

And the “Final Score (Bern Score)” value [1, 12]?
Its value is 6.

And the “Cell Distance” value [1, 6]?
Its value is 0.

What about the “Matrix Stain” value [1, 6] of the same molecule?
Its value is 0.5.

What about the Morphology [1, 6] of the same molecule?
The Morphology was 0.

And the “Final Score (Bern Score)” value [1, 6]?
The value was 0.5.

What about the “Cell Distance” value [1, 13] of the same molecule?
Its value is 0.

And the “Matrix Stain” value [1, 13]?
Its value is 0.

And the Morphology [1, 13]?
Its Morphology is 0.

And the “Final Score (Bern Score)” value [1, 13]?
The value was 0.

What about the “Cell Distance” value [1, 7] of the same molecule?
Its value is 0.

And the “Matrix Stain” value [1, 7]?
Its value is 0.

What about the Morphology [1, 7] of the same molecule?
The Morphology was 0.

And the “Final Score (Bern Score)” value [1, 7]?
Its value is 0.

What about the “Cell Distance” value [1, 14] of the same molecule?
Its value is 0.

What about the “Matrix Stain” value [1, 14] of the same molecule?
The value was 0.5.

What about the Morphology [1, 14] of the same molecule?
The Morphology was 0.

What about the “Final Score (Bern Score)” value [1, 14] of the same molecule?
Its value is 0.5.

And the “Cell Distance” value [1, 8]?
Its value is 0.

What about the “Matrix Stain” value [1, 8] of the same molecule?
Its value is 0.

And the Morphology [1, 8]?
The Morphology was 0.

And the “Final Score (Bern Score)” value [1, 8]?
The value was 0.

And the “binding to and staining of rabbit dorsal femoral condyle explants” value [2]?
The value was “bind to and stain”.
